Measurements taken from paper PMC12627232 (MedComm, 2025).

Columns and labels:
[1] = system: MDA-MB-231 cells; test: TUNEL assay; format: cell-based, human; details: MDA-MB-231, 5 µM, 24 h
Description: The TUNEL assay was performed with the one‐step TUNEL apoptosis kit (MeilunBio) according to the manual from the manufacturer. Briefly, cells (5 × 10^5 cells per plate) were seeded in confocal dishes and incubated with drugs for 24 h. The medium was removed, and cells were fixed with 4% polyoxymethylene solution for 30 min. Subsequently, cells were treated with 20 µg/mL protease K for 5 min and TUNEL working solution for 1 h at 37°C. Eventually, cells were captured with a Leica TCS SP8 super‐resolution laser scanning confocal microscope.

[2] = system: MDA-MB-231 cells; test: Immunofluorescence of ac-H3; format: cell-based, human; details: 1 µM, 24 h
Description: Cells (10^5 cells per plate) were seeded in confocal dishes and incubated with drugs or DMSO (equal volume to experimental groups) for 24 h. The medium was removed, and cells were fixed with 4% polyoxymethylene solution for 30 min. The cells were treated with 0.2% Triton X‐100 for 10 min and 1% BSA for 1 h at room temperature. After that, cells were washed twice with TBST and incubated with anti‐H3 antibody (Cell Signal Technology; #13998) at 4°C overnight. When incubation finished, cells were washed five times with TBST and Cy3‐labeled goat anti‐rabbit IgG (Beyotime; #A0516) and DAPI solution (Solarbio) were added. After 1 h incubation and washing five times with TBST, cells were captured with Leica TCS SP8 super‐resolution laser scanning confocal microscope. The colocalization of ac‐H3 and DAPI was analyzed with ImageJ.

[3] = system: AGS; test: CCK-8 antiproliferation assay; format: cell-based; details: Homo sapiens, 48 h treatment
Description: (§1) Cell lines purchased from the Cell Bank of Type Culture Collection of the Chinese Academy of Sciences (Shanghai, China) were passaged after resuscitation. […] The third to tenth passages of cells were used for experiments. […] After incubation, 20 µL CCK‐8 solution (MeilunBio) was added. Two hours later, absorption was measured by a Varioskan plate at 450 nm. Inhibition curves and IC50 values were simulated and calculated using the log(inhibitor) versus response (three parameters) mode via GraphPad Prism software.

[4] = system: KM3; test: CCK-8 antiproliferation assay; format: cell-based; details: Homo sapiens, 48 h treatment
Description: as §1

[5] = system: MCF-7; test: CCK-8 antiproliferation assay; format: cell-based; details: Homo sapiens, MCF7, 48 h treatment
Description: as §1

[6] = system: Jurkat; test: CCK-8 antiproliferation assay; format: cell-based; details: Homo sapiens, 48 h treatment
Description: as §1

[7] = system: RPMI-8226; test: CCK-8 antiproliferation assay; format: cell-based; details: Homo sapiens, 48 h treatment
Description: as §1

[8] = system: HL-60; test: CCK-8 antiproliferation assay; format: cell-based; details: Homo sapiens, 48 h treatment
Description: as §1

[9] = system: NCI-H929; test: CCK-8 antiproliferation assay; format: cell-based; details: Homo sapiens, 48 h treatment
Description: as §1

[10] = system: PC-3; test: CCK-8 antiproliferation assay; format: cell-based; details: Homo sapiens, 48 h treatment
Description: as §1

[11] = biological target: T1, HDAC8 (Homo sapiens, UniProt Q9BY41); test: HDACs enzymatic assay HDAC8; format: biochemical
T1 construct: purchased BPS BIOSCIENCE Inc 50008
T1 sequence (Q9BY41 whole entry): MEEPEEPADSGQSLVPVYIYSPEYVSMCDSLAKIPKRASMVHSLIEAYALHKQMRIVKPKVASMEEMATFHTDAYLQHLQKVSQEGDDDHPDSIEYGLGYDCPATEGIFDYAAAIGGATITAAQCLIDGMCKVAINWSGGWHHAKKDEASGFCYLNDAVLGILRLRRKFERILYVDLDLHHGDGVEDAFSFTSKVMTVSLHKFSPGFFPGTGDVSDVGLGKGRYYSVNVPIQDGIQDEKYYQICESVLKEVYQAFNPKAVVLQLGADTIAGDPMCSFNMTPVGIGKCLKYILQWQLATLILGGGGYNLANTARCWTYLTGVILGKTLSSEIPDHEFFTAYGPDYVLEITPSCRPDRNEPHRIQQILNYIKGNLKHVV
Description: HDACs enzymatic assays were conducted according to our previous work. […] Substrates (Boc‐Lys(acetyl)‐AMC for HeLa nuclear extract, Ac‐Leu‐Gly‐Lys (Tfa)‐AMC for HDAC4, HDAC5, HDAC6, HDAC7, HDAC9, HDAC10, and HDAC11, Boc‐Lys(triflouroacetyl)‐AMC for HDAC8 and Ac‐Leu‐Gly‐Lys(acetyl)‐AMC for HDAC1, HDAC2, HDAC3) were added to the mixture. The blank group was set to no enzyme or drug but contains substrates and the control group was set to no drug but contains substrates and enzymes to each 96‐well plate. After 30 min of incubation at 37°C, the mixture was terminated with 1 mg/mL trypsin and 3 µM TSA. After another 30 min, the fluorescence intensity was measured using a Varioskan plate reader at 360/460 nm. […] The inhibition curves and IC50 values were simulated and calculated using the log(inhibitor) versus response (three parameters) mode in GraphPad Prism software.

Compound: O=C(CCCCCCNC(=O)c1cc(OCCc2ccccc2)c2ccccc2n1)NO [SDFZ-8]
- TUNEL green fluorescence (apoptosis) [1]: higher intensity of green fluorescence compared with SAHA
- immunofluorescence intensities of ac-H3 [2]: notably stronger than those of cells treated with SAHA
- IC50 [3]: 560 ± 20 nM
- IC50 [4]: 100 ± 5 nM
- IC50 [5]: 1960 ± 60 nM
- IC50 [6]: 89 ± 1 nM
- IC50 [7]: 460 ± 30 nM
- IC50 [8]: 94 ± 4 nM
- IC50 [9]: 100 ± 5 nM
- IC50 [10]: 620 ± 70 nM
- IC50 ([11]; Class I, mean ± SD of three): 750 ± 70 nM
- selectivity toward HDAC8 ([11]; relative to HDAC1): more than 800 fold
